What follows are molecules tested against T1, human Nav1.8 (Homo sapiens, UniProt Q9Y5Y9) (assay: Nav1.8 sodium channels assay, QPatch 48 HTX electrophysiology in HEK293-Nav1.8 cells). Details: at least one set of experimental runs; read-out: average pIC50 value against Nav1.8 (converted).
T1 construct: expressed in transfected cells; host or cells: HEK293 (HEK293-Nav1.8)
Format: cell-based
Outline: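 IC50 came from 6-8 point curves of P2 current amplitude, normalized to baseline and a positive reference, and corrected for run-down using vehicle-only wells. Automated patch clamp used HEK293-Nav1.8 (with Navβ1 and TREK1) at pH 7.4 outside and CsF-based solution inside. An 8 s inactivating step at −46 mV preceded the 0 mV test pulse, repeated at 0.07 Hz.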

T1 sequence (Q9Y5Y9 whole entry): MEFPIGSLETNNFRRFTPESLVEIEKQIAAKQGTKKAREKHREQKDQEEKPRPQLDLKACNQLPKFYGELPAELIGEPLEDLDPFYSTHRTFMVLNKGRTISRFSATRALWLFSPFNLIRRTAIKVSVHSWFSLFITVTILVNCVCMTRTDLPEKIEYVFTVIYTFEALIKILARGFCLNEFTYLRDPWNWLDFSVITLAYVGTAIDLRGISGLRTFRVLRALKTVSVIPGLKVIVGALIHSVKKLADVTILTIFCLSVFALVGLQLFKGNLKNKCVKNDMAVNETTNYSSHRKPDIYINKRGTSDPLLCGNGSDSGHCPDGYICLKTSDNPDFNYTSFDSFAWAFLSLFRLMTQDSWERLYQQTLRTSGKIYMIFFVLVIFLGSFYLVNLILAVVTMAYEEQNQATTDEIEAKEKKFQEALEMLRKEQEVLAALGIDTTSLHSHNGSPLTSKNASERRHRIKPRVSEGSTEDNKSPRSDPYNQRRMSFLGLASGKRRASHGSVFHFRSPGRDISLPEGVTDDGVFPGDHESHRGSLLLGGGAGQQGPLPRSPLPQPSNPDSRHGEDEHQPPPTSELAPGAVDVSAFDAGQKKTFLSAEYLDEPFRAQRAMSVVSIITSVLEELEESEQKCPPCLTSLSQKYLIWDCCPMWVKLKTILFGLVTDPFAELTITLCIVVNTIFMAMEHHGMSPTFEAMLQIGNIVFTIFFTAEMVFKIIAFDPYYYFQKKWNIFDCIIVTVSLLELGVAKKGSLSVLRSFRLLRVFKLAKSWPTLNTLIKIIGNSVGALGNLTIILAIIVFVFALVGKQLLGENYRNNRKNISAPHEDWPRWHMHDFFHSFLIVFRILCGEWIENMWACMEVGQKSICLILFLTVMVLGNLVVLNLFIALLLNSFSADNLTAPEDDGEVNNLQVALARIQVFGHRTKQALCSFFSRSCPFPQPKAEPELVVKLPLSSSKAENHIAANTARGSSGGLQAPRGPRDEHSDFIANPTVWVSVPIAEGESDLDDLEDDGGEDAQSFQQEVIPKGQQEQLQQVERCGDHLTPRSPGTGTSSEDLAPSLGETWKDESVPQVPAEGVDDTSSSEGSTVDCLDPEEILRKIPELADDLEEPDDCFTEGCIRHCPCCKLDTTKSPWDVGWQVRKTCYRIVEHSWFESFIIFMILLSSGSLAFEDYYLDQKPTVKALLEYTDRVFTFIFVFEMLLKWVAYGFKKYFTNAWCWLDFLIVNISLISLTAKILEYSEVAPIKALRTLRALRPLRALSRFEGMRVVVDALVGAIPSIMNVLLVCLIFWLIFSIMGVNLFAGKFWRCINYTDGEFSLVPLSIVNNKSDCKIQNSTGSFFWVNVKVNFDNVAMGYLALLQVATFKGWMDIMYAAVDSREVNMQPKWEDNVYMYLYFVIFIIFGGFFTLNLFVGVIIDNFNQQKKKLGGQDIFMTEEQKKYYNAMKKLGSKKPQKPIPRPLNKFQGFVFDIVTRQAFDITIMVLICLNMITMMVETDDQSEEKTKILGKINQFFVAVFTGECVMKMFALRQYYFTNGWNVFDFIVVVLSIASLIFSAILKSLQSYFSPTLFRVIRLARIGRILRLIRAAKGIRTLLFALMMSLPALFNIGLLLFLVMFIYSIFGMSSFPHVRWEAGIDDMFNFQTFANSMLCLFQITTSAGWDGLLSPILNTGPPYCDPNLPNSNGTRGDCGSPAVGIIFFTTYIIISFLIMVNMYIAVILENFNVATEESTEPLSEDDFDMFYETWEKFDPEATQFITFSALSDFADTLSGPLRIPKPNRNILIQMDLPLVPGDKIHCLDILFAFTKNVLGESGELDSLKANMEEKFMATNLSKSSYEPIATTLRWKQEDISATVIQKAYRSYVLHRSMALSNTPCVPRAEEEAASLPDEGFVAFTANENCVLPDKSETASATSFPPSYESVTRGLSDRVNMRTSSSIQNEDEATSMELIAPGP
T1 sequence (Q07699 19-218 partner): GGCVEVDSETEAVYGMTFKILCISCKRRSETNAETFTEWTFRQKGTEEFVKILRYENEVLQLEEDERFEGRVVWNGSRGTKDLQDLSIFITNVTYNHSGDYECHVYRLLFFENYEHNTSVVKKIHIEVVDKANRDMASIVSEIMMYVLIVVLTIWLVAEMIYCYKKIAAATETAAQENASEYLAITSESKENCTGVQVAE

| IC50 | SMILES |
| --- | --- |
| ≤ 100 nM | Cc1cc(F)ccc1N1CN(c2ccc(=O)[nH]c2C)C(=O)c2cc(C(F)(F)F)c(C#N)cc21 [Example 111, 1-(4-fluoro-2-methylphenyl)-3-(2-methyl-6-oxo-1,6-dihydropyridin-3-yl)-4-oxo-6-(trifluoromethyl)-1,2,3,4-tetrahydroquinazoline-7-carbonitrile] |
| ≤ 100 nM | Cc1cc(F)ccc1N1CN(c2ccc(=O)[nH]c2C)C(=O)c2cc(C#N)c(OC(F)(F)F)cc21 [Example 112, 1-(4-fluoro-2-methylphenyl)-3-(2-methyl-6-oxo-1,6-dihydropyridin-3-yl)-4-oxo-7-(trifluoromethoxy)-1,2,3,4-tetrahydroquinazoline-6-carbonitrile] |
| 126 to 631 nM | Cc1cc(F)c(F)cc1N1CN(c2ccc(=O)[nH]c2C)C(=O)c2cc(C(F)(F)F)ccc21 [Example 113, 1-(4,5-difluoro-2-methylphenyl)-3-(2-methyl-6-oxo-1,6-dihydropyridin-3-yl)-6-(trifluoromethyl)-2,3-dihydroquinazolin-4(1H)-one] |
| ≤ 100 nM | Cc1cc(F)ccc1N1CN(c2cnc(=O)[nH]c2C)C(=O)c2ccc(C(F)(F)F)cc21 [Example 115, 1-(4-fluoro-2-methylphenyl)-3-(6-methyl-2-oxo-1,2-dihydropyrimidin-5-yl)-7-(trifluoromethyl)-2,3-dihydroquinazolin-4(1H)-one] |
| ≤ 100 nM | CCc1cc(F)ccc1N1CN(c2ccc(=O)[nH]c2C)C(=O)c2cc(F)ccc21 [Example 116, 1-(2-ethyl-4-fluorophenyl)-6-fluoro-3-(2-methyl-6-oxo-1,6-dihydropyridin-3-yl)-2,3-dihydroquinazolin-4(1H)-one] |
| ≤ 100 nM | Cc1[nH]c(=O)ccc1N1CN(c2cccc(F)c2C)c2ccc(C(F)(F)F)cc2C1=O [Example 120, 1-(3-fluoro-2-methylphenyl)-3-(2-methyl-6-oxo-1,6-dihydropyridin-3-yl)-6-(trifluoromethyl)-2,3-dihydroquinazolin-4(1H)-one] |
| 126 to 631 nM | Cc1cc(F)cc(F)c1N1CN(c2ccc(=O)[nH]c2C)C(=O)c2cc(C(F)(F)F)ccc21 [Example 121, 1-(2,4-difluoro-6-methylphenyl)-3-(2-methyl-6-oxo-1,6-dihydropyridin-3-yl)-6-(trifluoromethyl)-2,3-dihydroquinazolin-4(1H)-one] |
| ≤ 100 nM | Cc1[nH]c(=O)ccc1N1CN(c2ccc(F)cc2C(C)C)c2nc(C(F)F)ccc2C1=O [Example 122, 7-(difluoromethyl)-1-(4-fluoro-2-isopropylphenyl)-3-(2-methyl-6-oxo-1,6-dihydropyridin-3-yl)-2,3-dihydropyrido[2,3-d]pyrimidin-4(1H)-one] |
| ≤ 100 nM | Cc1cc(C#N)ccc1N1CN(c2ccc(=O)[nH]c2C)C(=O)c2cc(OC(F)(F)F)ccc21 [Example 123, 3-methyl-4-(3-(2-methyl-6-oxo-1,6-dihydropyridin-3-yl)-4-oxo-6-(trifluoromethoxy)-3,4-dihydroquinazolin-1(2H)-yl)benzonitrile] |
| 794 to 7940 nM | Cc1cc(F)ccc1N1CN(c2ccc(=O)[nH]c2C)C(=O)c2cccc(C)c21 [Example 125, 1-(4-fluoro-2-methylphenyl)-8-methyl-3-(2-methyl-6-oxo-1,6-dihydropyridin-3-yl)-2,3-dihydroquinazolin-4(1H)-one] |
| ≤ 100 nM | COc1ccc(N2CN(c3ccc(=O)[nH]c3C)C(=O)c3cc(C(F)(F)F)ccc32)c(C)c1 [Example 126, 1-(4-methoxy-2-methylphenyl)-3-(2-methyl-6-oxo-1,6-dihydropyridin-3-yl)-6-(trifluoromethyl)-2,3-dihydroquinazolin-4(1H)-one] |
| 126 to 631 nM | Cc1cc(O)ccc1N1CN(c2ccc(=O)[nH]c2C)C(=O)c2cc(C(F)(F)F)ccc21 [Example 127, 1-(4-hydroxy-2-methylphenyl)-3-(2-methyl-6-oxo-1,6-dihydropyridin-3-yl)-6-(trifluoromethyl)-2,3-dihydroquinazolin-4(1H)-one] |
| ≤ 100 nM | Cc1cc(F)ccc1N1CN(c2ccc(=O)[nH]c2C)C(=O)c2cc(F)c(OC(F)(F)F)cc21 [Example 129, 6-fluoro-1-(4-fluoro-2-methylphenyl)-3-(2-methyl-6-oxo-1,6-dihydropyridin-3-yl)-7-(trifluoromethoxy)-2,3-dihydroquinazolin-4(1H)-one] |
| 126 to 631 nM | Cc1cc(F)ccc1N1CN(c2ccc(=O)[nH]c2C)C(=O)c2c(C(F)F)cccc21 [Example 130, 5-(difluoromethyl)-1-(4-fluoro-2-methylphenyl)-3-(2-methyl-6-oxo-1,6-dihydropyridin-3-yl)-2,3-dihydroquinazolin-4(1H)-one] |
| 794 to 7940 nM | Cc1cccc(F)c1N1CN(c2ccc(=O)[nH]c2C)C(=O)c2cc(C(F)(F)F)ccc21 [Example 135, 1-(2-fluoro-6-methylphenyl)-3-(2-methyl-6-oxo-1,6-dihydropyridin-3-yl)-6-(trifluoromethyl)-2,3-dihydroquinazolin-4(1H)-one] |
| ≤ 100 nM | Cc1[nH]c(=O)ccc1N1CN(c2ccc(F)cc2C(C)C)c2cc(C(F)F)ccc2C1=O [Example 137, 7-(difluoromethyl)-1-(4-fluoro-2-isopropylphenyl)-3-(2-methyl-6-oxo-1,6-dihydropyridin-3-yl)-2,3-dihydroquinazolin-4(1H)-one] |
| ≤ 100 nM | Cc1cc(F)ccc1N1CN(c2ccc(=O)[nH]c2C)C(=O)c2ccc(C(F)F)cc21 [Example 138, 7-(difluoromethyl)-1-(4-fluoro-2-methylphenyl)-3-(2-methyl-6-oxo-1,6-dihydropyridin-3-yl)-2,3-dihydroquinazolin-4(1H)-one] |
| ≤ 100 nM | CCc1[nH]c(=O)ccc1N1CN(c2ccc(F)cc2C(C)C)c2ccc(Cl)cc2C1=O [Example 139, 6-chloro-3-(2-ethyl-6-oxo-1,6-dihydropyridin-3-yl)-1-(4-fluoro-2-isopropylphenyl)-2,3-dihydroquinazolin-4(1H)-one] |

More lines, now with the values behind:

| SMILES | IC50 |
| --- | --- |
| Cc1cc(F)ccc1N1CN(c2ccc(=O)[nH]c2C)C(=O)c2cc(F)c(C(F)(F)F)cc21 [Example 110, 6-fluoro-1-(4-fluoro-2-methylphenyl)-3-(2-methyl-6-oxo-1,6-dihydropyridin-3-yl)-7-(trifluoromethyl)-2,3-dihydroquinazolin-4(1H)-one] | ≤ 100 nM |
| Cc1[nH]c(=O)ccc1N1CN(c2ccc(F)cc2C(C)(C)C)c2cc(C(F)(F)F)ccc2C1=O [Example 114, 1-(2-(tert-butyl)-4-fluorophenyl)-3-(2-methyl-6-oxo-1,6-dihydropyridin-3-yl)-7-(trifluoromethyl)-2,3-dihydroquinazolin-4(1H)-one] | ≤ 100 nM |
| Cc1cc(C#N)ccc1N1CN(c2ccc(=O)[nH]c2C)C(=O)c2cc(Cl)ccc21 [Example 117, 4-(6-chloro-3-(2-methyl-6-oxo-1,6-dihydropyridin-3-yl)-4-oxo-3,4-dihydroquinazolin-1(2H)-yl)-3-methylbenzonitrile] | ≤ 100 nM |
| Cc1ccc(F)cc1N1CN(c2ccc(=O)[nH]c2C)C(=O)c2cc(C(F)(F)F)ccc21 [Example 118, 1-(5-fluoro-2-methylphenyl)-3-(2-methyl-6-oxo-1,6-dihydropyridin-3-yl)-6-(trifluoromethyl)-2,3-dihydroquinazolin-4(1H)-one] | 126 to 631 nM |
| Cc1cc(OC(F)(F)F)ccc1N1CN(c2ccc(=O)[nH]c2)C(=O)c2cc(C(F)(F)F)cnc21 [Example 119, 1-(2-methyl-4-(trifluorometh-oxy)phenyl)-3-(6-oxo-1,6-dihydropyridin-3-yl)-6-(trifluoromethyl)-2,3-dihydropyrido[2,3-d]pyrimidin-4(1H)-one] | 126 to 631 nM |
| Cc1cc(F)ccc1N1CN(c2ccc(=O)[nH]c2C)C(=O)c2cccc(Cl)c21 [Example 124, 8-chloro-1-(4-fluoro-2-methylphenyl)-3-(2-methyl-6-oxo-1,6-dihydropyridin-3-yl)-2,3-dihydroquinazolin-4(1H)-one] | 794 to 7940 nM |
| Cc1[nH]c(=O)ccc1N1CN(c2cccc(C#N)c2C)c2ccc(Cl)cc2C1=O [Example 128, 3-(6-chloro-3-(2-methyl-6-oxo-1,6-dihydropyridin-3-yl)-4-oxo-3,4-dihydroquinazolin-1(2H)-yl)-2-methylbenzonitrile] | 126 to 631 nM |
| Cc1cc(F)ccc1N1CN(c2cc(F)c(=O)[nH]c2C)C(=O)c2cc(C(F)(F)F)ccc21 [Example 131, 3-(5-fluoro-2-methyl-6-oxo-1,6-dihydropyridin-3-yl)-1-(4-fluoro-2-methylphenyl)-6-(trifluoromethyl)-2,3-dihydroquinazolin-4(1H)-one] | ≤ 100 nM |
| COc1cc(F)ccc1N1CN(c2ccc(=O)[nH]c2C)C(=O)c2cc(F)c(F)cc21 [Example 132, 6,7-difluoro-1-(4-fluoro-2-methoxyphenyl)-3-(2-methyl-6-oxo-1,6-dihydropyridin-3-yl)-2,3-dihydroquinazolin-4(1H)-one] | 126 to 631 nM |
| Cc1ccc(N2CN(c3ccc(=O)[nH]c3C)C(=O)c3cc(Cl)ccc32)c(O)c1 [Example 133, 6-chloro-1-(2-hydroxy-4-methylphenyl)-3-(2-methyl-6-oxo-1,6-dihydropyridin-3-yl)-2,3-dihydroquinazolin-4(1H)-one] | 794 to 7940 nM |
| COc1cc(C)ccc1N1CN(c2ccc(=O)[nH]c2C)C(=O)c2cc(Cl)ccc21 [Example 134, 6-chloro-1-(2-methoxy-4-methylphenyl)-3-(2-methyl-6-oxo-1,6-dihydropyridin-3-yl)-2,3-dihydroquinazolin-4(1H)-one] | 126 to 631 nM |
| Cc1cc(F)ccc1N1CN(c2cc[nH]c(=O)c2)C(=O)c2c1ccc(Cl)c2F [Example 136, 6-chloro-5-fluoro-1-(4-fluoro-2-methylphenyl)-3-(2-oxo-1,2-dihydropyridin-4-yl)-2,3-dihydroquinazolin-4(1H)-one] | 794 to 7940 nM |

From patent US20230103791A1 (GLAXOSMITHKLINE INTELLECTUAL PROPERTY DEVELOPMENT LIMITED, priority 2019, published 2023)
